Test results taken from article PMC5269720, “Conformational Change of a Tryptophan Residue in BtuF Facilitates Binding and Transport of Cobinamide by the Vitamin B12 Transporter BtuCD-F” (Scientific Reports, 2017).
Where two headings read alike, the source gives them in different places.

Experiments:
[1] = biological target: T1, wild type BtuFfluo (E.c. BtuF) (Escherichia coli, UniProt P37028, Q145C); assay: Fluorescence quenching substrate binding assay with BtuFfluo, wild type; settings: BtuFfluo 5 nM, substrate 0.02 nM to 33 μM, 30 min at 10 °C, mean and S.E.M., n = 12
T1 construct: His6; made in house
T1 sequence (P37028 23-266 Q145C): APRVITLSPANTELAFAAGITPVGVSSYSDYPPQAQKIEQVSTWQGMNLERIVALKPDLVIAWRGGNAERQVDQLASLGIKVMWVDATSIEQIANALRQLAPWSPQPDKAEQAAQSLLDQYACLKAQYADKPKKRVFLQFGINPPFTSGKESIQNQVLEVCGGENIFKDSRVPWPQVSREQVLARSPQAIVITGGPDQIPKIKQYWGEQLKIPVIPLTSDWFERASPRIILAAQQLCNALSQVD
Description: (§1) For binding assays BtuF was labeled at a cysteine residue in the backbone helix with fluorescein-5-maleimide (Thermo scientific 62245) as described previously. In brief, 50 to 100 μM BtuF Q145C (Invitrogen QuickChange) was labeled with a 10-fold molar excess of fluorescein-5-maleimide (BtuFfluo). The reaction was run over night at 4 °C in the presence of 1 mM TCEP to prevent oxidation and stopped with 5 mM β-mercaptoethanol. Excess label was removed by desalting with PD10 columns and the protein was further purified by size exclusion chromatography. Protein concentration was determined by Bradford assay using BSA for calibration and the labeling efficiency was determined by measuring the absorbance at 494 nm. The labeled protein was flash frozen in liquid nitrogen and stored at −80 °C until the day of use. Final storage buffer was 50 mM HEPES 7, 200 mM NaCl, 0.5 mM EDTA-NaOH 8 and 10% v/v Glycerol.
(§2) The assay is based on monitoring the ligand-induced change in emission of fluorescein attached to BtuF (BtuFfluo). A similar approach has been used to determine the affinity of MBP for maltose in the presence of various sAB[40][41][42]. BtuFfluo at 5 nM was incubated with a range of substrate concentrations from 0.02 nM to 33 μM. After incubation for 30 min at 10 °C the fluorescence intensity was recorded at an excitation wavelength of 485 nm and emission at 528 nm. The maximum signal was recorded in the absence of substrate and decreased with increasing substrate concentration. The difference of the maximum intensity minus the signal at a certain substrate concentration was plotted against the substrate concentration. One site –specific binding in Prism GraphPad was used to fit the data for KD determination (GraphPad Prism version 6.04 for Windows, GraphPad Software, La Jolla California USA, www.graphpad.com”). Binding buffer composition was 50 mM Tris 7.5 and 200 mM NaCl.

[2] = biological target: T2, BtuFfluo W66F (E.c. BtuF) (Escherichia coli, UniProt P37028, Q145C/W66F); assay: Fluorescence quenching substrate binding assay with BtuFfluo, W66F mutant; settings: BtuFfluo 5 nM, substrate 0.02 nM to 33 μM, 30 min at 10 °C, mean and S.E.M., n = 12
T2 construct: His6; made in house
T2 sequence (P37028 23-266 W66F/Q145C): as the sequence (P37028 23-266 Q145C) above, with W44F counted along it
Description: as §1
The assay is based on monitoring the ligand-induced change in emission of fluorescein attached to BtuF (BtuFfluo). A similar approach has been used to determine the affinity of MBP for maltose in the presence of various sAB[40][41][42]. […] After incubation for 30 min at 10 °C the fluorescence intensity was recorded at an excitation wavelength of 485 nm and emission at 528 nm. The maximum signal was recorded in the absence of substrate and decreased with increasing substrate concentration. […]

[3] = biological target: T3, BtuFfluo W66Y (E.c. BtuF) (Escherichia coli, UniProt P37028, Q145C/W66Y); assay: Fluorescence quenching substrate binding assay with BtuFfluo, W66Y mutant; settings: for Kd: BtuFfluo 5 nM, substrate 0.02 nM to 33 μM, 30 min at 10 °C, mean and S.E.M., n = 12
T3 construct: His6; made in house
T3 sequence (P37028 23-266 W66Y/Q145C): as the sequence (P37028 23-266 Q145C) above, with W44Y counted along it
Description: as §1, §2

[4] = biological target: T4, BtuFfluo W66L (E.c. BtuF) (Escherichia coli, UniProt P37028, Q145C/W66L); assay: Fluorescence quenching substrate binding assay with BtuFfluo, W66L mutant; settings: for Kd: BtuFfluo 5 nM, substrate 0.02 nM to 33 μM, 30 min at 10 °C, mean and S.E.M., n = 12
T4 construct: His6; made in house
T4 sequence (P37028 23-266 W66L/Q145C): as the sequence (P37028 23-266 Q145C) above, with W44L counted along it
Description: as §1, §2

[5] = biological target: T5, BtuFfluo W66H (E.c. BtuF) (Escherichia coli, UniProt P37028, Q145C/W66H); assay: Fluorescence quenching substrate binding assay with BtuFfluo, W66H mutant; settings: for Kd: BtuFfluo 5 nM, substrate 0.02 nM to 33 μM, 30 min at 10 °C, mean and S.E.M., n = 12
T5 construct: His6; made in house
T5 sequence (P37028 23-266 W66H/Q145C): as the sequence (P37028 23-266 Q145C) above, with W44H counted along it
Description: as §1, §2

[6] = biological target: T6, BtuFfluo W66R (E.c. BtuF) (Escherichia coli, UniProt P37028, Q145C/W66R); assay: Fluorescence quenching substrate binding assay with BtuFfluo, W66R mutant; settings: for decrease in affinity compared to wt: W66R (arginine) versus wild type BtuF; for Kd: BtuFfluo 5 nM, substrate 0.02 nM to 33 μM, 30 min at 10 °C, mean and S.E.M., n = 9
T6 construct: His6; made in house
T6 sequence (P37028 23-266 W66R/Q145C): as the sequence (P37028 23-266 Q145C) above, with W44R counted along it
Description: as §1, §2

[7] = biological target: T7, BtuFfluo W66A (E.c. BtuF) (Escherichia coli, UniProt P37028, Q145C/W66A); assay: Fluorescence quenching substrate binding assay with BtuFfluo, W66A mutant; settings: BtuFfluo 5 nM, substrate 0.02 nM to 33 μM, 30 min at 10 °C, mean and S.E.M., n = 12
T7 construct: His6; made in house
T7 sequence (P37028 23-266 W66A/Q145C): as the sequence (P37028 23-266 Q145C) above, with W44A counted along it
Description: as §1, §2

[8] = biological target: T8, BtuFfluo W66E (E.c. BtuF) (Escherichia coli, UniProt P37028, Q145C/W66E); assay: Fluorescence quenching substrate binding assay with BtuFfluo, W66E mutant
T8 construct: His6; made in house
T8 sequence (P37028 23-266 W66E/Q145C): as the sequence (P37028 23-266 Q145C) above, with W44E counted along it
Description: as §1, §2

[9] = biological target: T9, wild type BtuCD-F (Escherichia coli, UniProt P06609+P37028); assay: In vitro substrate transport assay with liposome reconstituted BtuCD and wild type BtuF; format: biochemical
T9 construct: His10 (N); made in house
T9 sequence (P06609 whole entry): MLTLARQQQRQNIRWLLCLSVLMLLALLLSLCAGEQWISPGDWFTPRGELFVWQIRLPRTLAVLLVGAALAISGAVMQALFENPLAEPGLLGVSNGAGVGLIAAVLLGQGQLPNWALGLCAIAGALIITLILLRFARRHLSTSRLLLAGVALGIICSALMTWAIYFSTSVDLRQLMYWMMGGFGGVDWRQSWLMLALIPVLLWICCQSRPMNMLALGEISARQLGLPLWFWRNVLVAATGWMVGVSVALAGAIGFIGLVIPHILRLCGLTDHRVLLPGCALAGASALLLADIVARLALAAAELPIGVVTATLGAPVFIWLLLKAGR
T9 sequence (P37028 23-266): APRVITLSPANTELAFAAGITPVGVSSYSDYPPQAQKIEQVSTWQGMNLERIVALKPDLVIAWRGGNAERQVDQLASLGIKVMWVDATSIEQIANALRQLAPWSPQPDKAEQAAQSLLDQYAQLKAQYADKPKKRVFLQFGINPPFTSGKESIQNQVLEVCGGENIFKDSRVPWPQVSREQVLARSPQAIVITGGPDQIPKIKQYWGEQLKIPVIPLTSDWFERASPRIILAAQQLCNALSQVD
T9 sequence (P06611 whole entry, further chain): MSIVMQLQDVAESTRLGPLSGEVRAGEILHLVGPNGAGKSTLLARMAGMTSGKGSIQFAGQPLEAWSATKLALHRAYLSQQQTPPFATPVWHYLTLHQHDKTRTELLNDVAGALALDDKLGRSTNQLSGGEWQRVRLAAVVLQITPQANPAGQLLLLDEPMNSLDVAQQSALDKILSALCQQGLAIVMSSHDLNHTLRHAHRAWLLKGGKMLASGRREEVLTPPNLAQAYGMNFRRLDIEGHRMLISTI
Description: (§3) BtuCD was expressed, purified and reconstituted as described previously with some modifications regarding buffer composition and reconstitution procedure. In brief, BtuCD with an N-terminal His10-tag on BtuC was purified by IMAC and desalted into a buffer of the following composition: 50 mM Tris 7.5, 500 mm NaCl, 0.5 mM EDTA-NaOH 8 and 0.1% w/v LDAO. Purified protein was used directly for reconstitution into liposomes consisting of E. coli Polar lipids and α-Phosphatidylcholine (3:1 weight ratio, Avanti Polar Lipids 100600 C and 840051 C). Liposomes were destabilized with 0.3% w/v Triton X-100 for 20 min at RT. Protein was added with a ratio of 50:1 LPR and incubated for 90 min at RT. Detergent was removed by BioBeads (40 mg/ml mixture) in 4 steps and proteoliposomes were stored at −80 °C until the day of experiment. The protein concentration within the liposomes was determined by Amido black protein assay using BSA for the calibration curve.
The amount of right-side-in oriented BtuCD in liposomes was determined as described previously for ABC type II importer HmuUV with minor modifications. […] The amount of BtuFfluo associated with the liposomes was determined by measuring the fluorescence signal at an excitation wavelength of 485 nm and an emission wavelength of 516 nm. Unspecific BtuFfluo interaction with liposomes was measured using empty liposomes. […]

[10] = system: wild type BtuCD with BtuF W66 mutants (W66A, W66R, W66E, W66F); assay: In vitro substrate transport assay with liposome reconstituted wild type BtuCD and BtuF W66 mutants; format: biochemical, Escherichia coli; settings: 4 mg/ml proteoliposomes (~0.5 μM total BtuCD), 1 μM BtuF, 2 mM ATP, 15 μM cobinamide or cyanocobalamin
Description: as §3
The amount of right-side-in oriented BtuCD in liposomes was determined as described previously for ABC type II importer HmuUV with minor modifications. Briefly, liposome-reconstituted BtuCD was incubated with 1 μM fluorescently labeled BtuF (BtuFfluo) for 30 min at RT followed by a spin to remove excess BtuFfluo. The pellet was washed and resuspended at 1.25 mg/ml liposome concentration. The amount of BtuFfluo associated with the liposomes was determined by measuring the fluorescence signal at an excitation wavelength of 485 nm and an emission wavelength of 516 nm. Unspecific BtuFfluo interaction with liposomes was measured using empty liposomes.
For the substrate transport assays radiolabeled ^14C-cyano-aquo-cobinamide (^14CN-Cbi, labeled in house) or ^57Co-cyanocobalamin (^57Co-Cbl, MP Biomedicals 06B-430000, 10.5 uCi) was used. […] The radioactivity trapped on the filters was measured either by a β counter using LCS in case of ^14CN-Cbi or a γ counter in case of ^57Co-Cbl. Initial transport rates were determined by using linear regression in PrismGraphpad.

## C/C1=C2/[N-][C@H]([C@H](CC(N)=O)[C@@]2(C)CCC(=O)NC[C@@H](C)O)[C@]2(C)N=C(/C(C)=C3N=C(/C=C4N=C1[C@@H](CCC(N)=O)C\4(C)C)[C@@H](CCC(N)=O)[C@]\3(C)CC(N)=O)[C@@H](CCC(N)=O)[C@]2(C)CC(N)=O.[Co+3] [Cbi, cobinamide]
[1]; di-CN-Cbi, read-out: KD of Cbi
  Kd: 0.04 ± 0.01 µM
[2]; di-CN-Cbi, read-out: KD of Cbi
  Kd: 0.03 ± 0.007 µM
[3]; W66Y (tyrosine) versus wild type BtuF
  reduced affinity compared to wt: 3 fold
[3]; di-CN-Cbi, read-out: KD of Cbi
  Kd: 0.15 ± 0.03 µM
[4]; W66L (leucine) versus wild type BtuF
  reduced affinity compared to wt: 3 fold
[4]; di-CN-Cbi, read-out: KD of Cbi
  Kd: 0.12 ± 0.02 µM
[5]; W66H (histidine) versus wild type BtuF
  reduced affinity compared to wt: more than 10 fold
[5]; di-CN-Cbi, read-out: KD of Cbi
  Kd: 0.5 ± 0.1 µM
[6]
  decrease in affinity compared to wt: more than 10 fold
[6]; di-CN-Cbi, read-out: KD of Cbi
  Kd: 0.8 ± 0.2 µM
[7]; di-CN-Cbi
  KD of Cbi: low micromolar range
[7]; di-CN-Cbi, read-out: KD of Cbi
  Kd: 1.8 ± 0.8 µM
[8]; di-CN-Cbi, BtuFfluo 5 nM, substrate 0.02 nM to 33 μM, 30 min at 10 °C, mean and S.E.M., n = 12
  KD of Cbi: low micromolar range
[8]; di-CN-Cbi, BtuFfluo 5 nM, substrate 0.02 nM to 33 μM, 30 min at 10 °C, mean and S.E.M., n = 12, read-out: KD of Cbi
  Kd: 2.9 ± 0.8 µM
[9]; 14CN-Cbi, 4 mg/ml proteoliposomes (~0.5 μM total BtuCD), 1 μM BtuF, 15 μM cobinamide, 2 mM ATP, 22 °C, corrected for right-side-in oriented transporters, mean ± S.E.M., n = 6
  initial transport rate: 0.7 ± 0.2 nmol Cbi/mg protein/min
[9]; calculated, Cbi versus Cbl transport by wild type BtuCD-F
  in vitro turnover number for Cbi transport, slower than that of Cbl transport: approximately 1.5 fold
[10]
  effect of BtuF W66X substitution on in vitro transport rate: hardly affected
[10]; listed as cobinamide
  effect of BtuF W66X substitution on in vitro transport rate: not influenced

## cyanocobalamin [Cbl]
[1]; CN-Cbl
  KD of Cbl: low nM range
[1]; CN-Cbl, read-out: KD of Cbl
  Kd: 0.0091 ± 0.0026 µM
[2]; CN-Cbl, read-out: KD of Cbl
  Kd: 0.008 ± 0.0019 µM
[3]; CN-Cbl, read-out: KD of Cbl
  Kd: 0.0057 ± 0.0017 µM
[4]; CN-Cbl, read-out: KD of Cbl
  Kd: 0.015 ± 0.002 µM
[5]; CN-Cbl, read-out: KD of Cbl
  Kd: 0.0055 ± 0.0017 µM
[6]; CN-Cbl, read-out: KD of Cbl
  Kd: 0.068 ± 0.013 µM
[6]
  decrease in affinity compared to wt: ~ 7 fold
[7]; CN-Cbl, read-out: KD of Cbl
  Kd: 0.014 ± 0.004 µM
[8]; CN-Cbl, BtuFfluo 5 nM, substrate 0.02 nM to 33 μM, 30 min at 10 °C, mean and S.E.M., n = 12, read-out: KD of Cbl
  Kd: 0.057 ± 0.015 µM
[8]; W66E (glutamate) versus wild type BtuF
  decrease in affinity compared to wt: ~ 7 fold
[10]
  effect of BtuF W66X substitution on in vitro transport rate: not influenced
